The results in this text go back to patent US7109338B2, “1,2-disubstituted 1,4-dihydro-4-oxoquinoline compounds” (priority 1999, dated 2006).

In data set [1] the test system is Poliovirus type 1 (Polio 1, Sabin). Put plainly: microbe, parasite or virus in culture. Type of data set: cell-based.
Data set [2] relates to echovirus type 11 (Echo 11, Gregory). In words: In vitro anti-picornavirus activity (MTT), Echo 11. The format is cell-based. The conditions noted are these: HeLa-S3 cells, MTT method, 37° C. (Tetrazolium assays rely on reduction of a dye to a coloured formazan, in cell work by metabolically active cells.)
In data set [3] the test system is coxsackievirus type A7 (CA7). Put plainly: In vitro anti-picornavirus activity (MTT), CA7. The conditions noted are these: HeLa-S3 cells, MTT method, 37° C. The format is cell-based.
Data set [4] deals with coxsackievirus type B4 (CB4,JVB). In words: In vitro anti-picornavirus activity (MTT), CB4. Type of data set: cell-based. The conditions noted are these: HeLa cells, MTT method, 37° C.
The subject of data set [5] is human rhinovirus type 1B (HRV 1B, B632). In words: Anti-rhinovirus activity (MTT), HRV1B. Type of data set: cell-based. The conditions noted are these: HeLa (Ohio strain) cells, MTT method, 33° C.
Another data set has as its system HRV 2 (HGP). Put plainly: Anti-rhinovirus activity (MTT), HRV2. The format is cell-based, human rhinovirus. The conditions noted are these: HeLa (Ohio strain) cells, MTT method, 33° C.
The next data set relates to HRV 89 (41617-Gallo). Put plainly: Anti-rhinovirus activity (MTT), HRV89. The format is cell-based, human rhinovirus. The conditions noted are these: HeLa (Ohio strain) cells, MTT method, 33° C.
For a further data set, the system named is HeLa cells. Put plainly: Cytotoxicity (MTT, without virus), HeLa. The conditions noted are these: HeLa, no virus, incubated for 4 days.
Another data set relates to HeLa-S3 cells. In words: Cytotoxicity (MTT, without virus), HeLa-S3. The conditions noted are these: HeLa-S3, no virus, incubated for 4 days.
Another data set concerns HeLa (Ohio strain)cells. In words: Cytotoxicity (MTT, without virus), HeLa(Ohio). The conditions noted are these: HeLa(Ohio), no virus, incubated for 4 days.

Molecules are shown by their SMILES. Converted amounts (≈) assume the structure as drawn. A value given as a limit tells only on which side of the number the result lay.

As to `CC(C)c1ccc2c(c1)c(=O)cc(-c1cccs1)n2C` [Compound A308], in data set [1], the “IC50 Polio 1” value was determined as 0.87 µg/mL (≈ 3.07 µM). Moreover, the “IC50 Echo 11” value in data set [2] turned out to be 0.31 µg/mL (≈ 1.09 µM). For the same molecule, the “IC50 CA7” value in data set [3] was 3.9 µg/mL (≈ 13.8 µM). Besides, the “IC50 CB4” value in [4] is 1.6 µg/mL (≈ 5.65 µM). Further, the “IC50 HRV1B” value in data set [5] was 0.81 µg/mL (≈ 2.86 µM). In addition, the “IC50 HRV2” value with HRV 2 (HGP) came to 0.36 µg/mL (≈ 1.27 µM). Also, the “IC50 HRV89” value with HRV 89 (41617-Gallo) was 0.94 µg/mL (≈ 3.32 µM). Besides, the “Cytotoxicity CC50 HeLa” value with HeLa cells worked out at 11 µg/mL. For the same molecule, the “Cytotoxicity CC50 HeLa-S3” value in the data set on HeLa-S3 cells was 16 µg/mL. In addition, the “Cytotoxicity CC50 HeLa(Ohio)” value in the data set with HeLa (Ohio strain)cells was determined as 11 µg/mL.

As for `CCn1c(-c2cccs2)cc(=O)c2cc(C(C)C)ccc21` [Compound A309], in data set [1], the “IC50 Polio 1” value came out at 0.76 µg/mL (≈ 2.56 µM). Further, in [2], the “IC50 Echo 11” value was determined as 0.28 µg/mL (≈ 0.941 µM). The “IC50 CA7” value in data set [3] came out at 3.3 µg/mL (≈ 11.1 µM). Moreover, the “IC50 CB4” value in data set [4] stood at 1.5 µg/mL (≈ 5.04 µM). Moreover, the “IC50 HRV1B” value in data set [5] is 0.48 µg/mL (≈ 1.61 µM). Besides, in the data set on HRV 2 (HGP), the “IC50 HRV2” value was 0.25 µg/mL (≈ 0.841 µM). In the data set with HRV 89 (41617-Gallo), the “IC50 HRV89” value was 0.58 µg/mL (≈ 1.95 µM). Besides, in the data set on HeLa cells, the “Cytotoxicity CC50 HeLa” value came out at 12 µg/mL. The “Cytotoxicity CC50 HeLa-S3” value in the data set with HeLa-S3 cells worked out at 18 µg/mL. In addition, in the data set on HeLa (Ohio strain)cells, the “Cytotoxicity CC50 HeLa(Ohio)” value was 14 µg/mL.

`CCn1c(-c2cccs2)c(C)c(=O)c2cc(C(C)C)ccc21` [Compound A311]: in data set [1], the “IC50 Polio 1” value stood at 0.67 µg/mL (≈ 2.15 µM). Also, the “IC50 Echo 11” value in data set [2] came out at 0.42 µg/mL (≈ 1.35 µM). The “IC50 CA7” value in data set [3] came to 3.3 µg/mL (≈ 10.6 µM). Further, in [4], the “IC50 CB4” value turned out to be 2.0 µg/mL (≈ 6.42 µM). In addition, the “IC50 HRV1B” value in data set [5] came out at 1.0 µg/mL (≈ 3.21 µM). In addition, the “IC50 HRV2” value with HRV 2 (HGP) amounted to 0.53 µg/mL (≈ 1.7 µM). Also, the “IC50 HRV89” value in the data set with HRV 89 (41617-Gallo) came to 1.2 µg/mL (≈ 3.85 µM). Besides, the “Cytotoxicity CC50 HeLa” value with HeLa cells was 6.8 µg/mL. In addition, in the data set on HeLa-S3 cells, the “Cytotoxicity CC50 HeLa-S3” value was >10 µg/mL. Also, in the data set on HeLa (Ohio strain)cells, the “Cytotoxicity CC50 HeLa(Ohio)” value was >10 µg/mL.

Take `CCn1c(-c2ccsc2)cc(=O)c2cc(C(C)C)ccc21` [Compound A313]: in data set [1], the “IC50 Polio 1” value was found to be 0.94 µg/mL (≈ 3.16 µM). Also, in data set [2], the “IC50 Echo 11” value came out at 0.35 µg/mL (≈ 1.18 µM). Moreover, the “IC50 CA7” value in data set [3] was 3.8 µg/mL (≈ 12.8 µM). For the same molecule, in [4], the “IC50 CB4” value was determined as 3.0 µg/mL (≈ 10.1 µM). Also, in data set [5], the “IC50 HRV1B” value is 0.90 µg/mL (≈ 3.03 µM). Moreover, the “IC50 HRV2” value in the data set with HRV 2 (HGP) came to 0.33 µg/mL (≈ 1.11 µM). Moreover, the “IC50 HRV89” value with HRV 89 (41617-Gallo) was determined as 0.96 µg/mL (≈ 3.23 µM). Moreover, the “Cytotoxicity CC50 HeLa” value with HeLa cells stood at 18 µg/mL. In addition, in the data set with HeLa-S3 cells, the “Cytotoxicity CC50 HeLa-S3” value was >20 µg/mL. Besides, the “Cytotoxicity CC50 HeLa(Ohio)” value in the data set with HeLa (Ohio strain)cells came to 15 µg/mL.

Turning to `Cc1ccc(-c2cc(=O)c3cc(C(C)C)ccc3n2C)s1` [Compound A314], the “IC50 Polio 1” value in [1] stood at 0.60 µg/mL (≈ 2.02 µM). In data set [2], the “IC50 Echo 11” value was 0.51 µg/mL (≈ 1.71 µM). Moreover, in data set [3], the “IC50 CA7” value came to 1.5 µg/mL (≈ 5.04 µM). Also, the “IC50 CB4” value in [4] worked out at 0.82 µg/mL (≈ 2.76 µM). The “IC50 HRV1B” value in data set [5] was 0.56 µg/mL (≈ 1.88 µM). Further, the “IC50 HRV2” value in the data set on HRV 2 (HGP) is 0.55 µg/mL (≈ 1.85 µM). Further, the “IC50 HRV89” value in the data set with HRV 89 (41617-Gallo) turned out to be 0.38 µg/mL (≈ 1.28 µM). Further, in the data set on HeLa cells, the “Cytotoxicity CC50 HeLa” value stood at 7.0 µg/mL. Further, the “Cytotoxicity CC50 HeLa-S3” value in the data set with HeLa-S3 cells was >10 µg/mL. Moreover, the “Cytotoxicity CC50 HeLa(Ohio)” value in the data set on HeLa (Ohio strain)cells is >10 µg/mL.

For the molecule `CCn1c(-c2ccc(C)s2)cc(=O)c2cc(C(C)C)ccc21` [Compound A315], the “IC50 Polio 1” value in data set [1] stood at 0.54 µg/mL (≈ 1.73 µM). Besides, the “IC50 Echo 11” value in data set [2] worked out at 0.30 µg/mL (≈ 0.963 µM). Also, in data set [3], the “IC50 CA7” value is 1.2 µg/mL (≈ 3.85 µM). Also, the “IC50 CB4” value in data set [4] is 0.63 µg/mL (≈ 2.02 µM). Besides, the “IC50 HRV1B” value in [5] turned out to be 0.52 µg/mL (≈ 1.67 µM). In the data set on HRV 2 (HGP), the “IC50 HRV2” value was determined as 0.28 µg/mL (≈ 0.899 µM). The “IC50 HRV89” value in the data set on HRV 89 (41617-Gallo) turned out to be 0.26 µg/mL (≈ 0.835 µM). The “Cytotoxicity CC50 HeLa” value with HeLa cells was 7.1 µg/mL. Moreover, the “Cytotoxicity CC50 HeLa-S3” value in the data set on HeLa-S3 cells was >10 µg/mL. Also, the “Cytotoxicity CC50 HeLa(Ohio)” value in the data set with HeLa (Ohio strain)cells was >10 µg/mL.

For the molecule `CC(C)c1ccc2c(c1)c(=O)cc(-c1ccc(Br)s1)n2C` [Compound A316], the “IC50 Polio 1” value in data set [1] came out at 0.78 µg/mL (≈ 2.15 µM). Further, the “IC50 Echo 11” value in [2] is 0.39 µg/mL (≈ 1.08 µM). In addition, the “IC50 CA7” value in data set [3] was 1.2 µg/mL (≈ 3.31 µM). The “IC50 CB4” value in data set [4] is 1.1 µg/mL (≈ 3.04 µM). The “IC50 HRV1B” value in data set [5] was found to be 0.56 µg/mL (≈ 1.55 µM). Besides, the “IC50 HRV2” value in the data set on HRV 2 (HGP) is 0.29 µg/mL (≈ 0.8 µM). The “IC50 HRV89” value in the data set on HRV 89 (41617-Gallo) stood at 0.27 µg/mL (≈ 0.745 µM). In addition, the “Cytotoxicity CC50 HeLa” value in the data set on HeLa cells is >5 µg/mL. Also, the “Cytotoxicity CC50 HeLa-S3” value with HeLa-S3 cells was >5 µg/mL. Besides, the “Cytotoxicity CC50 HeLa(Ohio)” value in the data set on HeLa (Ohio strain)cells was >5 µg/mL.
